For this test, the system named is Psn1, H460 and 143B tumor lines. Nature of the test: CellTiter-Glo viability, tumor lines. The class given is cell-based, human. Here is the method:
Human keratinocytes (HaCaT; RRID:CVCL_0038), 143B cells (osteosarcoma; RRID:CVCL_2270), and HEK-293T (RRID:CVCL_0063) cells were maintained in Dulbecco's Modified Eagle's Medium (DMEM) supplemented with 10% fetal bovine serum (FBS; Peak Serum, PS-FB-2). Human Psn1 (pancreatic ductal adenocarcinoma; RRID:CVCL_1644) and H460 (non-small cell lung carcinoma; RRID:CVCL_0459) cells were cultured in RPMI-1640 medium supplemented with 10% FBS. HaCaT cells were synchronized in Go using serum starvation for 48 hr and released into the cell cycle by addition of DMEM with 10% FBS (51). Novobiocin (cat #46531) and Courmermycin-A1 (cat #C9270) were obtained from Sigma. Etoposide (cat #S1225) and AT7519 (cat #S1524) were obtained from SelleckChem. All stock solutions of inhibitors were stored at −20° C. as 10 mM suspensions in DMSO.
Cell viability determinations were performed using CellTiter-Glo Assays (Promega; cat #G7572). Cells were seeded in 96-well plates at a density of ~3×10^3 cells/well and treated with drugs for 72 hr, after which the cells were processed for viability using CellTiter-Glo reagent according to the instructions of the manufacturer. Each drug concentration test was performed using four replicates, and results averaged and plotted on graphs, +/−1 s.d.
In general terms: ATP-based viability assays read luminescence as a measure of living cells.

The source of these data is patent publication US20260306641A1, “HELICASE DEGRADERS” (priority 2023, published 2026).

The IC50 is the concentration that inhibits the measured activity by half.

On to `CO[C@@H]1[C@@H](OC(=O)c2ccc(C)[nH]2)[C@@H](O)[C@H](Oc2ccc3c(O)c(NC(=O)c4c[nH]c(C(=O)Nc5c(O)c6ccc(O[C@@H]7OC(C)(C)[C@H](OC)[C@@H](OC(=O)c8ccc(C)[nH]8)[C@H]7O)c(C)c6oc5=O)c4C)c(=O)oc3c2C)OC1(C)C` [CA1], for which the IC50 (Homo sapiens, 72 hr, all three tumor lines (Psn1, H460, 143B), read-out: tumor line viability IC50 estimates) is 1000 to 4000 nM. Also, the “sensitivity of tumor lines relative to HaCaT” value (Psn1, H460, 143B vs HaCaT, 4320 min) is listed as 4-10 times.
